± gives the standard deviation of the reports.
SMILES | glass transition temperature [°C]
*CC(*)(CC(=O)Oc1ccc(OC)cc1)C(=O)Oc1ccc(OC)cc1 (repeat unit) | 119.50
*CCC1C(=O)N(CCCCCCCCCCCCCCCCCC)C(=O)C1* (repeat unit) | 67.10
*C(=O)Nc1ccc(C(c2ccc(NC(=O)c3ccc4c(c3)C(=O)N(c3cccc5c(N6C(=O)c7ccc(*)cc7C6=O)cccc35)C4=O)cc2)(C(F)(F)F)C(F)(F)F)cc1 (repeat unit) | 250.00
*c1ccc(-c2ccc(-c3cnc4cc(-c5ccc6nc(*)cnc6c5)ccc4n3)cc2)cc1 (repeat unit) | 345.50
*C(=O)c1ccc2c(c1)C(=O)N(c1ccc(NC(=O)c3cccc(C(=O)Nc4ccc(N5C(=O)c6ccc(*)cc6C5=O)cc4)c3)cc1)C2=O (repeat unit) | 247.00
*Oc1ccc(C(c2ccc(OC(*)=S)cc2)C(C)C)cc1 (repeat unit) | 135.00
*/C=C/c1c(OC(=O)c2ccc(C(=O)Oc3cccc4ccc(*)nc34)cc2)ccc2ccccc12 (repeat unit) | 175.00
*c1ccc(Oc2cccc(Oc3ccc(N4C(=O)c5cccc(Oc6ccc(Sc7ccc(Oc8cccc9c8C(=O)N(*)C9=O)cc7)cc6)c5C4=O)cc3)c2)cc1 (repeat unit) | 202.00
*NC(CCC(=O)OCc1ccc([N+](=O)[O-])cc1)C(*)=O (repeat unit) | 53.2
*CCCCCCNC(=O)CCCCCCCCCCCCCCCCC(=O)N* (repeat unit) | 47.00
*CC(C)(COC(=O)O*)C(=O)OCc1ccccc1 (repeat unit) | -2.00
*/C=C/c1cccc(/C=C/[Si](C)(C)c2ccc([Si](*)(C)C)cc2)c1 (repeat unit) | 38.10
*CC(*)c1ccc(B(Oc2ccc(-c3ccc(OC)cc3)c3cccnc23)c2ccc(C(C)(C)C)cc2)cc1 (repeat unit) | 220.00
*c1ccc(/C=C/c2cc(OCC(CC)CCCC)c(/C=C/c3ccc(N(*)c4ccccc4)cc3)cc2OC)cc1 (repeat unit) | 147.00
*Oc1ccc(C(=O)c2ccc(C(=O)c3ccc(*)c(C(C)C)c3)cc2)cc1C (repeat unit) | 149.00
*C(=O)OCCCCCCCCOC(=O)c1ccc(NC(=O)c2ccc(N3C(=O)c4ccc(*)cc4C3=O)cc2)cc1 (repeat unit) | 105.00
*/C=C/CCCCCCCCCC(CCCCCCCCC*)COCCOCCOCCOCCOCCCCCC (repeat unit) | -76.00
*c1ccc(Oc2ccc(NC(=O)c3cc(C(=O)Nc4ccc(Oc5ccc(-c6nnc(*)o6)cc5)cc4)cc(N4C(=O)c5ccccc5C4=O)c3)cc2)cc1 (repeat unit) | 285.00
*Cc1ccc(C(C)c2ccc(CN3C(=O)c4ccc(Oc5ccc6c(c5)C(=O)N(*)C6=O)cc4C3=O)o2)o1 (repeat unit) | 129.00
*Oc1ccc(C(C)(C)c2ccc(OC(*)=O)cc2)cc1 (repeat unit) [Poly(bisphenol A carbonate)] | 152.42 ± 6.3
*CC(*)OC(=O)CC1CCCCC1 (repeat unit) | 25.00
*c1ccc(Oc2ccc(Oc3ccc(-n4c(=O)c5cc6c(=O)n(*)c(=O)c6cc5c4=O)cc3)cc2)cc1 (repeat unit) | 292.00 ± 28
*Oc1ccc(C(C)(C)c2ccc(OC3(F)C(*)(F)C(F)(F)C3(F)F)cc2)cc1 (repeat unit) | 98.00

SMILES | glass transition temperature [°C]
*O[Si](C)(C)O[Si](C)(C)O[Si](C)(C)O[Si](C)(C)c1cccc([Si](*)(C)C)c1 (repeat unit) | -75.00
*c1ccc(-c2cc(-c3ccc(OCC(CC)CCCC)cc3)cc(-c3ccc(-c4ccc5c(c4)C(CCCCCC)(CCCCCC)c4cc(*)ccc4-5)cc3)c2-c2ccc(OCC(CC)CCCC)cc2)cc1 (repeat unit) | 110.00
*N=P(N=P(N=S(*)(=O)NCCC)(NCCC)NCCC)(NCCC)NCCC (repeat unit) | 6.00
*O[Si](*)(C)OCCCCCCCCCCCOc1ccc(C2COC(c3ccc(OCC(C)CC)cc3)OC2)cc1 (repeat unit) | 30.00
*c1cc(N2C(=O)c3ccc(P(=O)(c4ccccc4)c4ccc5c(c4)C(=O)N(*)C5=O)cc3C2=O)cc(C(F)(F)F)c1 (repeat unit) | 317.00
*Oc1ccc(NC(=O)c2ccc(C(=O)Nc3ccc(*)cc3)cc2)cc1 (repeat unit) | 240.50
*c1ccc(C2(c3ccc(N4C(=O)C(c5ccccc5)=C(c5ccc(C6=C(c7ccccc7)C(=O)N(*)C6=O)cc5)C4=O)cc3)c3ccccc3-c3ccccc32)cc1 (repeat unit) | 340.00
*CCNC(=O)c1ccccc1O* (repeat unit) | 84.00
*CCCCCCNC(=O)c1cc(NC(=O)C(C(C)CC)N2C(=O)c3ccccc3C2=O)cc(C(=O)N*)c1 (repeat unit) | 135.00
*CC(*)(C)C(=O)OCCCC (repeat unit) [poly(butyl methacrylate)] | 22.42 ± 6.3
*C(C)C(*)C(=O)OC12CC3CC(C)(CC(C)(C3)C1)C2 (repeat unit) | 194.50
*Oc1ccc(Oc2ccc(C(=O)c3ccc(*)c(S(=O)(=O)O)c3)cc2S(=O)(=O)O)cc1 (repeat unit) | 220.00
*CCCCCCCCCCN1C(=O)c2ccc(-c3ccc(-c4ccc5c(c4)C(=O)N(*)C5=O)cc3)cc2C1=O (repeat unit) | 103.00
*c1cccc(P(=O)(c2cccc(N3C(=O)c4ccc(Oc5ccc6c(c5)C(=O)N(*)C6=O)cc4C3=O)c2)c2cc(C(F)(F)F)cc(C(F)(F)F)c2)c1 (repeat unit) | 228.00
*c1cc(C(=O)OCCCCCC)cc(N2C(=O)CC(C3Cc4ccccc4C4C(=O)N(*)C(=O)C43)C2=O)c1 (repeat unit) | 187.00
*Nc1cc(NC(=O)c2ccc(-c3ccc(C(*)=O)cc3)cc2)cc(-c2nnc(-c3ccccn3)o2)c1 (repeat unit) | 120.00
*C(=O)c1ccc2c(c1)C(=O)N(c1ccc(-c3ccccc3N3C(=O)c4ccc(*)cc4C3=O)cc1)C2=O (repeat unit) | 305.00
*/C=N/c1ccc(C(=O)OCCCCOCCCCOCCCCOC(=O)c2ccc(/N=C/c3ccc(*)s3)cc2)cc1 (repeat unit) | 25.00
*CC(*)OC(=O)C(C)(C)C(C)C(C)C (repeat unit) | 55.00
*c1ccc(S(=O)(=O)c2ccc(-n3nccc3-c3ccc(-c4ccnn4*)cc3)cc2)cc1 (repeat unit) | 266.00
*C(=O)OCCOC(=O)c1cccc(N2C(=O)c3ccc(*)cc3C2=O)c1 (repeat unit) | 220.00
*O[Si](C)(C)O[Si](C)(C)OC(C)CCCCC(*)C (repeat unit) | -87.00
*CCCNC(=O)c1ccc(C(=O)N*)cc1 (repeat unit) | 180.00

SMILES | glass transition temperature [°C]
*CC(C)(C)CS(=O)(=O)CC(C)(C)COC(=O)Nc1ccc(Cc2ccc(NC(=O)O*)cc2)cc1 (repeat unit) | 90.00
*CC(*)(CC(=O)OCCCCCCC)C(=O)OCCCCCCC (repeat unit) | -23.00
*C(=O)c1ccc2c(c1)C(=O)N(c1c(C)cc(-c3cc(C)c(N4C(=O)c5ccc(*)cc5C4=O)c(C)c3)cc1C)C2=O (repeat unit) | 310.00
*Nc1cc(NC(=O)Nc2ccc(Cc3ccc(NC(*)=O)cc3)cc2)cc(C(=O)Nc2cccc3c2C(=O)c2ccccc2C3=O)c1 (repeat unit) | 178.00
*Oc1ccc(Oc2ccc(C(=O)c3ccc(*)cc3)cc2)cc1-c1cccc(C(F)(F)F)c1 (repeat unit) | 134.00
*c1cc(C)c(/N=C/c2ccc(OCc3ccc(COc4ccc(/C=N/c5cc(C)c(N6C(=O)c7ccc8c9ccc%10c%11c(ccc(c%12ccc(c7c8%12)C6=O)c%119)C(=O)N(*)C%10=O)cc5C)cc4)cc3)cc2)cc1C (repeat unit) | 130.00
*CC(O)COc1ccc(C(C)(C)c2ccc(OCC(O)COc3ccccc3C(=O)Nc3ccc(O*)cc3)cc2)cc1 (repeat unit) | 121.00
*CC(*)C(=O)OCC(F)(F)C(F)(F)C(F)(F)C(F)(F)C(F)(F)F (repeat unit) | -39.00
*CC(*)C(=O)OCc1c(Br)c(Br)c(Br)c(Br)c1Br (repeat unit) | 181.00
*O[Si](*)(C)c1c(F)c(F)c(F)c(F)c1F (repeat unit) | -25.00
*CC(*)(CC(=O)OCCCCCCCCC)C(=O)OCCCCCCCCC (repeat unit) | -13.00
*OC(COC(=O)c1ccc(C(*)=O)c(OC)c1)COc1ccc(/N=N/c2ccc(C#N)cc2)cc1 (repeat unit) | 120.00
*c1ccc(Oc2ccc(Oc3ccc(N4C(=O)c5ccc(Oc6ccc(Sc7ccc(Oc8ccc9c(c8)C(=O)N(*)C9=O)cc7)cc6)cc5C4=O)cc3)cc2)cc1 (repeat unit) | 201.00
*N(C)[Si](C)(C=C)N(C)[Si](*)(C)C (repeat unit) | -42.00
*/C(=C/c1cc(OC)c(/C=C(\c2ccc(F)cc2)c2ccc3cc(*)ccc3c2)cc1OC)c1ccc(F)cc1 (repeat unit) | 208.00
*CCCCOC(=O)CCSCCCCCCSCCC(=O)O* (repeat unit) | -73.00
*c1ccc(Sc2ccc(-n3c(=O)c4cc5c(=O)n(*)c(=O)c5cc4c3=O)cn2)nc1 (repeat unit) | 359.00
*c1ccc(OCCCCCCCCCCCCCCCC)c(N2C(=O)CC(C3C=C(C)C4C(=O)N(*)C(=O)C4C3)C2=O)c1 (repeat unit) | 186.00
*C(=O)c1ccc2c(c1)C(=O)N(c1ccc(C(=O)c3cccc(N4C(=O)c5ccc(*)cc5C4=O)c3)cc1)C2=O (repeat unit) | 282.00 ± 3
*CCCCCCOP(=O)(/N=N/c1ccc(-c2ccc(/N=N/P(=O)(O*)OC)cc2)cc1)OC (repeat unit) | 37.00
*CC(*)c1cccc2ccccc12 (repeat unit) | 160.00

— the PolyMetriX glass transition set
